# Read-outs that look alike come from different tables or passages of the source. *1 amine or outer side, *2 acyl side, *3 side chain or, on linkers, in order; H or OH if unused. Where a SMILES comes first, the peptide text is derived from it. Where no end group is shown, it is not given here. [ ]: non-standard residue; d: D form. Tyr(3-125I) = 3-[125I]iodotyrosine, O=C([C@H](Cc1ccc(O[*:3])c([125I])c1)N[*:1])[*:2]; Tyr(3-I) = N[C@@H](Cc1ccc(O)c(I)c1)C(=O)O
# Key:
# [1] = test system: mouse peritoneal macrophages infected with S. typhimurium 415; assay: Combined action of streptomycine and peptide on digestion of S. typhimurium 415 by mouse peritoneal macrophages in vitro; settings: streptomycine 50 μg/ml alone or 10 μg/ml + peptide 1 nM
# [2] = target: non-opioid receptors for β-endorphin on T lymphocytes; assay type: binding, human
# [3] = test system: T lymphocytes from the blood of healthy donors; assay: Con A-induced proliferation of T lymphocytes; assay type: cell-based, human
# [4] = target: non-opioid receptors for β-endorphin on T lymphocytes; assay type: binding, human; settings: for Ki: read-out: Ki, inhibition of [125I]β-endorphin binding
# [5] = target: high-affinity (non-opioid) β-endorphin receptors on murine peritoneal macrophages; settings: read-out: Ki, inhibition of [125I]β-endorphin binding to non-opioid receptors
# [6] = mouse, in vivo
# [7] = test system: mouse peritoneal macrophages infected with S. typhimurium 415; assay: Phagocytosis (digestion) of S. typhimurium 415 by mouse peritoneal macrophages in vitro; settings: for Time within which phagocytes completely digested the captured microbes: peptide 1 nM; for BCA, bacterial cytocidal activity, percentage of phagocytes destroyed by intracellular bacteria / PA, phagocytic activity, percentage of macrophages participating in phagocytosis / PN, phagocytic number, average number of microbes per macrophage: tuftsin 100 nM, ± SEM
# in vivo = settings: BCA, mouse, ip
# [8] = target: non-opioid (naloxone-insensitive) receptors for β-endorphin on T lymphocytes from normal human blood (human); assay: radioligand saturation binding on human T lymphocytes, Scatchard plot, in the presence of naloxone
# [9] = target: non-opioid (naloxone-insensitive) receptors for β-endorphin on T lymphocytes from normal human blood (human); assay: radioligand saturation binding on human T lymphocytes, Scatchard plot, in the absence of naloxone
# [10] = target: non-opioid (naloxone-insensitive) receptors for β-endorphin on T lymphocytes from normal human blood (human); assay: displacement of 1 nM [125I]β-endorphin from human T lymphocytes; Ki=IC50/(1+[L]/Kd)
# [11] = target: non-opioid (naloxone-insensitive) receptors for β-endorphin on T lymphocytes from normal human blood (human); assay: radioligand saturation binding on human T lymphocytes, 4 °C, Scatchard analysis
# [12] = target: non-opioid (naloxone-insensitive) receptors for β-endorphin on T lymphocytes from normal human blood (human); assay: radioligand saturation binding on human T lymphocytes, Scatchard analysis, one-site model
# [13] = read-out: Kd of labeled peptide binding to T lymphocytes
# [14] = T lymphocytes of healthy donors
# [15] = phagocytosis time 1 h, pentarphin, cyclopentarphin 1 nM
# [16] = phagocytosis time 2 h, pentarphin, cyclopentarphin 1 nM
# [17] = phagocytosis time 4 h, pentarphin, cyclopentarphin 1 nM
# [18] = phagocytosis time 7 h, pentarphin, cyclopentarphin 1 nM
# [19] = phagocytosis time 12 h, pentarphin 1 nM
molecule,measurement,setting,value
[H]/N=C(/N)N[C@H]1[C@H](O)[C@@H](O)[C@H](O[C@@H]2O[C@@H](C)[C@](O)(C=O)[C@H]2O[C@@H]2O[C@@H](CO)[C@H](O)[C@@H](O)[C@@H]2NC)[C@@H](N/C(N)=N\[H])[C@@H]1O [Streptomycine],"BCA, bacterial cytocidal activity","[1]; phagocytosis time 1 h, ± SEM",1.04 ± 0.32%
same,"PA, phagocytic activity","[1]; phagocytosis time 1 h, ± SEM",86.45 ± 2.13%
same,"PN, phagocytic number","[1]; phagocytosis time 1 h, ± SEM",8.56 ± 0.76 n
same,"BCA, bacterial cytocidal activity","[1]; phagocytosis time 2 h, ± SEM",1.12 ± 0.74%
same,"PA, phagocytic activity","[1]; phagocytosis time 2 h, ± SEM",96.17 ± 1.76%
same,"PN, phagocytic number","[1]; phagocytosis time 2 h, ± SEM",2.03 ± 0.46 n
same,"BCA, bacterial cytocidal activity",[1]; phagocytosis time 4 h,0%
same,"PA, phagocytic activity",[1]; phagocytosis time 4 h,0%
same,"PN, phagocytic number",[1]; phagocytosis time 4 h,0 n
CC(C)[C@H](N)C(=O)N[C@@H](CCCCN)C(=O)NCC(=O)N[C@@H](Cc1ccccc1)C(=O)N[C@@H](Cc1ccc(O)c(I)c1)C(=O)O [[^125I]-H-VKGFY-OH] (H-VKGF[Tyr(3-I)]-OH),Kd,[2]; [13],36.3 ± 0.5 nM
CC(C)C[C@H](NC(=O)[C@H](CS)NC(=O)[C@@H](NC(=O)[C@H](CC(C)C)NC(=O)[C@@H](N)CO)[C@@H](C)O)C(=O)N[C@H](C(=O)N[C@@H](CCCCN)C(=O)NCC(=O)N[C@@H](Cc1ccccc1)C(=O)N[C@@H](Cc1ccc(O)c(I)c1)C(=O)O)C(C)C [[^125I]-immunorphin] (H-SLTCLVKGF[Tyr(3-I)]-OH),Kd,[2]; [13],7 ± 0.3 nM
same,Kd,[2]; read-out: Kd of labeled peptide binding to T lymphocytes in the presence of naloxone,7.4 ± 0.2 nM
C=CCN1CC[C@]23c4c5ccc(O)c4O[C@H]2C(=O)CC[C@@]3(O)[C@H]1C5 [naloxone],Effect on Con A-induced proliferation of T lymphocytes,[3]; [14],not active
H-CLVKGFY-OH [H-CLVKGFY-OH],Ki,[4],3.4 nM
H-LTCLVKGFY-OH,Ki,[4],1 nM
H-LVKGFY-OH [H-LVKGFY-OH],Ki,[4],8 nM
H-TCLVKGFY-OH,Ki,[4],2.2 nM
"H-VKGFY-OH [Pentarphin, Val-Lys-Gly-Phe-Tyr]",Ki,[5],12 nM
same,Kd,[2]; [13],36.3 ± 0.5 nM
same,Effect on Con A-induced proliferation of T lymphocytes,[3],stimulate
same,Stimulating effect on T lymphocyte proliferation in presence of naloxone,[3],not inhibited by naloxone
same,Immunogenicity,[6],No immunogenicity
same,Time within which phagocytes completely digested the captured microbes,[7],≤ 12 h
same,"BCA, bacterial cytocidal activity, percentage of phagocytes destroyed by intracellular bacteria",[7]; [15],1.08 ± 0.71%
same,"PA, phagocytic activity, percentage of macrophages participating in phagocytosis",[7]; [15],84.08 ± 2.12%
same,"PN, phagocytic number, average number of microbes per macrophage",[7]; [15],7.11 ± 0.15 n
same,"BCA, bacterial cytocidal activity, percentage of phagocytes destroyed by intracellular bacteria",[7]; [16],1.55 ± 0.65%
same,"PA, phagocytic activity, percentage of macrophages participating in phagocytosis",[7]; [16],89.15 ± 1.78%
same,"PN, phagocytic number, average number of microbes per macrophage",[7]; [16],9.29 ± 0.74 n
same,"BCA, bacterial cytocidal activity, percentage of phagocytes destroyed by intracellular bacteria",[7]; [17],9.32 ± 1.32%
same,"PA, phagocytic activity, percentage of macrophages participating in phagocytosis",[7]; [17],66.82 ± 1.14%
same,"PN, phagocytic number, average number of microbes per macrophage",[7]; [17],6.02 ± 0.66 n
same,"PA, phagocytic activity, percentage of macrophages participating in phagocytosis",[7]; [18],23.31 ± 0.84%
same,"PN, phagocytic number, average number of microbes per macrophage",[7]; [18],1.03 ± 0.24 n
same,"BCA, bacterial cytocidal activity, percentage of phagocytes destroyed by intracellular bacteria",[7]; [19],2.35 ± 1.21%
same,"PA, phagocytic activity, percentage of macrophages participating in phagocytosis",[7]; [19],3.73 ± 0.64%
same,"PN, phagocytic number, average number of microbes per macrophage",[7]; [19],0.66 ± 0.12 n
same,Ki,[4],15 nM
same,LD50,in vivo,2500 mg/kg
SLTCLVKGFY [immunorphin],Effect on Con A-induced proliferation of T lymphocytes,[3]; [14],stimulate
"Thr-Lys-Pro-Arg (TKPR; printed: Thr-Lys-Pro-Arg) [Tuftsin, reference compound]","BCA, bacterial cytocidal activity, percentage of phagocytes destroyed by intracellular bacteria",[7]; [15],1.41 ± 0.27%
same,"PA, phagocytic activity, percentage of macrophages participating in phagocytosis",[7]; [15],66.07 ± 1.82%
same,"PN, phagocytic number, average number of microbes per macrophage",[7]; [15],5.84 ± 0.27 n
same,"BCA, bacterial cytocidal activity, percentage of phagocytes destroyed by intracellular bacteria",[7]; [16],8.12 ± 0.99%
same,"PA, phagocytic activity, percentage of macrophages participating in phagocytosis",[7]; [16],74.11 ± 1.42%
same,"PN, phagocytic number, average number of microbes per macrophage",[7]; [16],7.31 ± 0.25 n
same,"BCA, bacterial cytocidal activity, percentage of phagocytes destroyed by intracellular bacteria",[7]; [17],29.34 ± 0.75%
same,"PA, phagocytic activity, percentage of macrophages participating in phagocytosis",[7]; [17],61.97 ± 1.18%
same,"PN, phagocytic number, average number of microbes per macrophage",[7]; [17],6.29 ± 0.48 n
same,"BCA, bacterial cytocidal activity, percentage of phagocytes destroyed by intracellular bacteria",[7]; [18],31.46 ± 1.23%
same,"PA, phagocytic activity, percentage of macrophages participating in phagocytosis",[7]; [18],38.48 ± 0.23%
same,"PN, phagocytic number, average number of microbes per macrophage",[7]; [18],3.32 ± 0.56 n
same,"BCA, bacterial cytocidal activity, percentage of phagocytes destroyed by intracellular bacteria",[7]; [19],7.64 ± 1.38%
same,"PA, phagocytic activity, percentage of macrophages participating in phagocytosis",[7]; [19],9.31 ± 0.29%
same,"PN, phagocytic number, average number of microbes per macrophage",[7]; [19],1.36 ± 0.86 n
same,"Activity, times lower than pentarphin/cyclopentarphin",[7]; tuftsin acted the same way at 100 nM versus 1 nM,100 times
[125I]-immunorphin (peptide),Kd,[8],7.4 nM
same,Kd,[9],7 nM
"[Met^5]enkephalin [Met-enkephalin, reference compound]",Effect on Con A-induced proliferation of T lymphocytes,[3],not active
same,Inhibition of β-endorphin binding in displacement assay,[4],not inhibited
cyclo(Val-Lys-Gly-Phe-Tyr) (VKGFY; cyclic; printed: Val-Lys-Gly-Phe-Tyr) [Cyclopentarphin],Time within which phagocytes completely digested the captured microbes,[7],≤ 7 h
same,"BCA, bacterial cytocidal activity, percentage of phagocytes destroyed by intracellular bacteria",[7]; [15],1.25 ± 0.64%
same,"PA, phagocytic activity, percentage of macrophages participating in phagocytosis",[7]; [15],87.81 ± 3.14%
same,"PN, phagocytic number, average number of microbes per macrophage",[7]; [15],7.78 ± 0.39 n
same,"BCA, bacterial cytocidal activity, percentage of phagocytes destroyed by intracellular bacteria",[7]; [16],1.06 ± 0.49%
same,"PN, phagocytic number, average number of microbes per macrophage",[7]; [16],8.81 ± 0.27 n
same,"BCA, bacterial cytocidal activity, percentage of phagocytes destroyed by intracellular bacteria",[7]; [17],2.13 ± 0.60%
same,"PA, phagocytic activity, percentage of macrophages participating in phagocytosis",[7]; [17],57.43 ± 2.01%
same,"PN, phagocytic number, average number of microbes per macrophage",[7]; [17],5.32 ± 0.51 n
same,"BCA, bacterial cytocidal activity, percentage of phagocytes destroyed by intracellular bacteria",[7]; [18],2.22 ± 1.31%
same,"PA, phagocytic activity, percentage of macrophages participating in phagocytosis",[7]; [18],1.74 ± 0.44%
same,"PN, phagocytic number, average number of microbes per macrophage",[7]; [18],0.27 ± 0.20 n
immunorphin (H-…-OH) (peptide),Ki,[10],0.6 nM
YGGFMTSEKSQTPLVTLFKNAIIKNA[Tyr(3-125I)]KKGE [(3-[125I]iodotyrosyl27)β-endorphin],Kd,[11],0.25 nM
"H-VKGFY-OH (also: 125I label, residue not given here) [[125I]-H-VKGFY-OH]",Kd,[12],36.3 nM
H-VKGFY-OH [pentarphin (H-VKGFY-OH)],Ki,[10],15 nM
H-LVKGFY-OH [H-LVKGFY-OH],Ki,[10],8 nM
H-CLVKGFY-OH [H-CLVKGFY-OH],Ki,[10],3.4 nM
H-TCLVKGFY-OH [H-TCLVKGFY-OH],Ki,[10],2.2 nM
H-LTCLVKGFY-OH [H-…-OH],Ki,[10],1 nM
